Test results from PubChem BioAssay (NCI).
Where “and” joins values, the source holds several entries; their conditions need not be identical. Identical values can stand only once.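 Five concentrations, 48 hours, 96-well plates. GI50: concentration for 50% inhibition of growth. TGI: concentration producing complete growth inhibition.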

What was measured:
Assay in all cases: DTP human tumour cell line panel, 48 h
SK-MEL-28 melanoma = system: SK-MEL-28 melanoma
CCRF-CEM leukemia = system: CCRF-CEM leukemia
UACC-62 melanoma = system: UACC-62 melanoma
LOX IMVI melanoma = system: LOX IMVI melanoma
HCT-15 colon = system: HCT-15 colon
SK-OV-3 ovarian = system: SK-OV-3 ovarian
OVCAR-3 ovarian = system: OVCAR-3 ovarian
OVCAR-4 ovarian = system: OVCAR-4 ovarian
U251 CNS = system: U251 CNS
SNB-19 CNS = system: SNB-19 CNS

SMILES	TGI (SK-MEL-28 melanoma)	TGI (CCRF-CEM leukemia)	TGI (UACC-62 melanoma)	TGI (LOX IMVI melanoma)	TGI (HCT-15 colon)	TGI (SK-OV-3 ovarian)	TGI (OVCAR-3 ovarian)	TGI (OVCAR-4 ovarian)	TGI (U251 CNS)	TGI (SNB-19 CNS)	GI50 (SK-MEL-28 melanoma) [µM]	GI50 (UACC-62 melanoma)	GI50 (LOX IMVI melanoma) [µM]	GI50 (HCT-15 colon)	GI50 (SK-OV-3 ovarian)	GI50 (OVCAR-3 ovarian) [µM]	GI50 (OVCAR-4 ovarian)	GI50 (U251 CNS)	GI50 (SNB-19 CNS)	GI50 (CCRF-CEM leukemia) [µM]
C=C1C(=O)OC2/C=C(\CO)CC/C=C(\CO)CC(OC(=O)C(C)C)C12 (stereo not given)	42.4 µM	> 33.2 µM	29.4 µM	45.8 µM	11.6 µM	> 55.9 µM	23.9 µM	44 µM	43.3 µM	45.9 µM	–	–	–	–	–	–	–	–	–	–
CC(C)C[C@H](NC(=O)[C@@H](NC(=O)c1cccc(-c2ccccc2)n1)[C@@H](C)O)B(O)O	0.0419 µM and 0.0563 µM	> 5.16 µM	0.0311 µM and 0.0412 µM	0.0181 µM and 0.0119 µM	0.107 µM	7.82 µM	0.0191 µM and < 0.011 µM	79 µM	1.92 µM	> 52.4 µM	0.00473	0.00558 µM and < 0.0111 µM	0.00473	0.0176 µM and < 0.0182 µM	0.0474 µM and 0.0325 µM	0.00385	0.0124 µM and 0.0185 µM	0.0251 µM and 0.0176 µM	0.616 µM and 0.106 µM	–
Nc1c(C(=O)N/N=C/c2ccc(-c3cc(Cl)c(Cl)cc3Cl)o2)cnn1-c1ccnc2c(C(F)(F)F)cccc12	> 100 µM	> 100 µM	> 100 µM	> 100 µM	> 100 µM	73 µM	> 100 µM	9.4 µM	> 100 µM	> 100 µM	4.03	3.94 µM	4.37	3.43 µM	4.81 µM	3.1	2.6 µM	4.18 µM	4.17 µM	3.9
O=C(Nc1ccc(Br)cc1)C(=O)C(C(=O)c1ccccc1F)C1OC(=O)c2ccccc21 (stereo not given)	50.2 µM	> 100 µM	28.1 µM	44.9 µM	> 100 µM	> 100 µM	> 100 µM	76 µM	51.8 µM	> 100 µM	–	–	–	–	–	–	–	–	–	–
CCOC(=O)C1=C(Nc2ccc(Br)cc2)OC/C1=N\NC(=O)c1ccccc1O	> 100 µM	34.3 µM	8.63 µM	20.3 µM	> 65.3 µM	> 67.7 µM	77.7 µM	> 100 µM	> 100 µM	> 100 µM	–	–	–	–	–	–	–	–	–	–
CC1CCCc2c1c1ccc3c(O)cccc3c1oc2=O (stereo not given)	> 100 µM	> 100 µM	> 100 µM	> 100 µM	> 100 µM	61.6 µM	> 100 µM	91.3 µM	> 100 µM	> 100 µM	–	–	–	–	–	–	–	–	–	–
C=C1C(OC/C=C/COC2O[C@@H]3O[C@@]4(C)CC[C@H]5[C@H](C)CC[C@@H](C2=C)[C@@]35OO4)O[C@@H]2O[C@@]3(C)CC[C@H]4[C@H](C)CC[C@@H]1[C@@]24OO3 (stereo not given in full)	52.2 µM	> 40 µM	69.1 µM	2.09 µM	16 µM	> 100 µM	11.4 µM	26.2 µM	25.7 µM	> 100 µM	12.3	2.01 µM	0.14	< 0.0194 µM	51.3 µM	–	0.741 µM	12.1 µM	30.8 µM	0.0325
NS(=O)(=O)c1ccc(-n2ncc3c(Nc4ccccc4)ncnc32)cc1	> 100 µM	92.5 µM	> 100 µM	70 µM	> 100 µM	> 100 µM	> 100 µM	> 100 µM	> 100 µM	> 100 µM	31.6	42.8 µM	14.9	19.1 µM	99.8 µM	38.2	32.1 µM	26.9 µM	> 100 µM	17.7
O=C(CNc1ccc2c(=S)c3ccccc3[nH]c2c1)Nc1ccccc1-c1ccccc1NC(=O)CNc1ccc2c(=S)c3ccccc3[nH]c2c1	41.2 µM	22.8 µM	44.3 µM	55.6 µM	49.5 µM	48.5 µM	55 µM	45.2 µM	42.3 µM	41 µM	–	–	–	–	–	–	–	–	–	–
COc1cccc(CCC(=O)c2cc3c(N)c(C(=O)Nc4cccc(Cl)c4C)sc3nc2C)c1	> 100 µM	> 100 µM	> 100 µM	> 100 µM	> 100 µM	> 75.6 µM	2.78 µM	> 100 µM	> 100 µM	> 100 µM	0.981	0.407 µM	0.664	0.433 µM	1.53 µM	0.37	1.56 µM	0.445 µM	0.523 µM	0.437
CCC1(NC(=O)c2cc(F)c(F)c(F)c2F)C(=O)NC(=O)N(C(C)C)C1=O (stereo not given)	45 µM	75.3 µM	34.1 µM	54.5 µM	> 100 µM	51.1 µM	53.1 µM	> 100 µM	91.3 µM	42.2 µM	14.5	15.7 µM	16.7	8.05 µM	23.2 µM	23.9	> 100 µM	25.6 µM	19.6 µM	19.8
NC(=O)c1ccccc1NC(=O)c1ccccc1Cl	> 100 µM	> 100 µM	> 100 µM	> 100 µM	> 100 µM	> 100 µM	> 100 µM	> 100 µM	> 100 µM	> 100 µM	> 100	> 100 µM	> 100	> 100 µM	> 100 µM	> 100	> 100 µM	> 100 µM	> 100 µM	> 100
COc1cc(C2CC(=O)Nc3c2ccc2ccccc32)cc(Br)c1OC (stereo not given)	> 100 µM	1.41 µM	–	> 33.5 µM	> 90.5 µM	> 22.7 µM	0.809 µM	> 100 µM	> 37.9 µM	> 100 µM	0.805	0.54 µM	0.452	0.445 µM	0.507 µM	0.309	3.64 µM	0.433 µM	11.7 µM	0.292
O=C(N/N=C/c1ccc(Cl)cc1Cl)c1ccc2nc(-c3ccc(Cl)cc3)[nH]c2c1	3.04 µM	9.03 µM	3.4 µM	2.94 µM	3.03 µM	4.31 µM	3.39 µM	3.29 µM	4.18 µM	5.06 µM	1.58	1.78 µM	1.57	1.42 µM	1.79 µM	1.84	1.74 µM	2.1 µM	2.34 µM	1.43
Clc1cc(-c2ccccc2)nc2ccccc12	> 100 µM	54.1 µM	> 100 µM	> 100 µM	36.5 µM	> 100 µM	> 100 µM	62.3 µM	> 100 µM	> 100 µM	–	–	–	–	–	–	–	–	–	–
Clc1ccc(CNc2nccc(-c3cnn4ncccc34)n2)cc1	17.5 µM	> 25 µM	8.73 µM	> 25 µM	> 25 µM	> 25 µM	21.6 µM	> 25 µM	> 25 µM	> 25 µM	5.64	3.74 µM	6.12	8.5 µM	11.8 µM	7.32	7.47 µM	6.73 µM	9.73 µM	9.69
c1ccc(B2OCC(C3OB(c4ccccc4)OC4COB(c5ccccc5)OC43)O2)cc1 (stereo not given)	> 100 µM	> 100 µM	> 100 µM	> 100 µM	> 100 µM	> 100 µM	> 100 µM	> 100 µM	> 100 µM	> 100 µM	–	–	–	–	–	–	–	–	–	–
Cc1ccccc1C(=O)Oc1ccc(OCc2ccccc2)cc1	> 100 µM	> 100 µM	> 100 µM	> 100 µM	> 100 µM	> 100 µM	> 100 µM	> 100 µM	> 100 µM	> 100 µM	–	–	–	–	–	–	–	–	–	–
O=C1c2ccccc2-c2c1c1ccc([N+](=O)[O-])cc1c(=O)n2CCCNCCO	2.62 µM	1.09 µM	1.85 µM	0.348 µM	1.69 µM	2.56 µM	2.78 µM	2.77 µM	1.43 µM	1.82 µM	1.27	0.372 µM	0.0665	0.276 µM	0.525 µM	1.14	0.492 µM	0.0778 µM	0.107 µM	0.023
O=[N+]([O-])c1ccc([N+]2=NC(c3ccccc3)=NN(c3ccccc3)C2)cc1	> 100 µM	> 100 µM	> 100 µM	> 100 µM	> 100 µM	> 100 µM	> 100 µM	> 100 µM	> 100 µM	> 100 µM	–	–	–	–	–	–	–	–	–	–
N#C/C(=C\c1c(-c2ccccc2)[nH]c2ccccc12)C(=O)c1ccccc1	> 100 µM	> 100 µM	> 100 µM	> 100 µM	> 100 µM	> 100 µM	5.75 µM	> 100 µM	27.4 µM	> 100 µM	12	3.6 µM	7.4	3.53 µM	15.2 µM	2.43	65.3 µM	4.73 µM	16.8 µM	7.27
Cc1nc2c(N3CCCC3)nc(N3CCNCC3)nc2nc1NCc1ccccc1	3.75 µM	11 µM and 6.27 µM	12.7 µM and 7.58 µM	16.8 µM and 3.19 µM	8.9 µM and 4.53 µM	11.7 µM and 20.5 µM	9.27 µM and 10.7 µM	11.7 µM and 21.7 µM	11.7 µM and 13 µM	10.6 µM and 16.3 µM	–	6.15 µM	2.47	4.17 µM	6.15 µM	3.28	5.57 µM	4.27 µM	–	4.65
Nc1nccc2c1ncn2C1OC(CO)C(O)C1O (stereo not given)	> 100 µM	> 100 µM	> 100 µM	> 100 µM	> 100 µM	> 100 µM	> 100 µM	> 100 µM	> 100 µM	> 100 µM	> 100	> 100 µM	94.1	75.8 µM	> 100 µM	> 100	> 100 µM	> 100 µM	> 100 µM	> 100
Cc1ncc(C(=O)Nc2ccc(CN3CCN(C)CC3)c(C(F)(F)F)c2)cc1C#Cc1c(N)ncc2ccccc12	0.889 µM	1.35 µM	0.781 µM	0.605 µM	0.873 µM	5.06 µM	1.04 µM	2.08 µM	1.07 µM	1.06 µM	0.411	0.246 µM	0.173	0.382 µM	1.61 µM	0.484	0.515 µM	0.539 µM	0.591 µM	0.494
FC(F)(F)c1cccc2c(SCCc3n[nH]c(=S)o3)ccnc12	> 100 µM	> 100 µM	34 µM	> 100 µM	> 100 µM	> 100 µM	> 100 µM	> 100 µM	> 100 µM	> 100 µM	82.9	16.6 µM	67	66.2 µM	92.7 µM	42.9	32.5 µM	53.3 µM	54.2 µM	38.6
Cc1cnccc1N=Nc1ccc(N(C)C)cc1	52.7 µM	> 100 µM	40.7 µM	53.9 µM	> 100 µM	48.2 µM	72.1 µM	61.2 µM	70.9 µM	> 100 µM	–	–	–	–	–	–	–	–	–	–
Nc1ccc(C(OC(=O)c2cc3ccccc3c(Cc3c(O)c(C(=O)OC(c4ccc(N)cc4)(c4ccc(N)cc4)c4ccc(N)cc4)cc4ccccc34)c2O)(c2ccc(N)cc2)c2ccc(N)cc2)cc1	16.4 µM	> 100 µM	11.9 µM	43.4 µM	> 100 µM	14.5 µM	3.76 µM	56.6 µM	12.6 µM	20.7 µM	3.49	1.98 µM	1.41	4.01 µM	2.87 µM	1.25	2.03 µM	0.248 µM	0.444 µM	3.03
S=c1sc2cscc2s1	41.1 µM	78 µM	34 µM	> 100 µM	> 100 µM	77.3 µM	54.9 µM	33 µM	> 100 µM	46 µM	–	–	–	–	–	–	–	–	–	–
O=C(COc1cccc(/C=C2\Oc3ccc4ccccc4c3C2=O)c1)c1ccc(Cl)cc1	> 100 µM	8.39 µM	> 100 µM	21.9 µM	> 100 µM	> 100 µM	48.6 µM	> 100 µM	> 100 µM	> 100 µM	> 100	81.9 µM	8.7	33 µM	> 100 µM	19.8	5.56 µM	27.2 µM	> 100 µM	2.92
